In patent US10759793B2, “2-(pyrazolopyridin-3-yl)pyrimidine derivatives as JAK inhibitors” (ALMIRALL, S.A., priority 2015, dated 2020):
pIC50: −log10 of the molar value.

Experiments:
Type in all cases: biochemical
JAK3 = JAK3 (Homo sapiens (Human), UniProt P52333); test: In vitro JAK kinase assay (TR-FRET), JAK3; details: catalytic domain aa 795-1124, GST-fusion; ATP 0.6 μM; peptide 140 nM; 30 minutes at room temperature
Summary of the method: (§1)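 Each human JAK enzyme assayed on biotinylated poly(GT) peptide substrate, reaction 30 min at room temperature. Phosphorylation detected by TR-FRET after a 3 h detection incubation.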

JAK2 = JAK2 (Homo sapiens (Human), UniProt O60674); test: In vitro JAK kinase assay (TR-FRET), JAK2; details: catalytic domain aa 826-1132, GST-fusion; ATP 0.2 μM; peptide 20 nM; 30 minutes at room temperature
Chain of JAK2 (O60674 826-1132): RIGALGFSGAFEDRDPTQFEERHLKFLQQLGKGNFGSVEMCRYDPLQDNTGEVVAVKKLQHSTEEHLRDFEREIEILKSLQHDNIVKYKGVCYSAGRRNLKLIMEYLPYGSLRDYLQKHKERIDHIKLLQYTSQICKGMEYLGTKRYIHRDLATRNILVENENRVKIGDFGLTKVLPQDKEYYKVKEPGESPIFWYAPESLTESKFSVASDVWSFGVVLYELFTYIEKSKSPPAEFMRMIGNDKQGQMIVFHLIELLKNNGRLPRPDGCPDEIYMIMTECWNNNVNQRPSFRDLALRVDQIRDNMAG
Summary of the method: as §1

JAK1 = JAK1 (Homo sapiens (Human), UniProt P23458); test: In vitro JAK kinase assay (TR-FRET), JAK1; details: catalytic domain aa 850-1154, GST-fusion; ATP 3 μM; peptide 60 nM; 30 minutes at room temperature
Chain of JAK1 (P23458 850-1154): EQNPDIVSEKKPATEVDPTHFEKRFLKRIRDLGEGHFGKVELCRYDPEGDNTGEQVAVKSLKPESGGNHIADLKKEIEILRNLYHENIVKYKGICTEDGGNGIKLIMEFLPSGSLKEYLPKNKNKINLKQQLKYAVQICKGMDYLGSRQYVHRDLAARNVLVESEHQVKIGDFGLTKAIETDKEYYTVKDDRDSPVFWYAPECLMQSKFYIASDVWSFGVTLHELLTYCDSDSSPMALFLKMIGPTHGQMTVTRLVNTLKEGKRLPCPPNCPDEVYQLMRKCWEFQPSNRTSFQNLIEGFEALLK
Summary of the method: as §1

Chain of JAK3 (P52333 795-1124): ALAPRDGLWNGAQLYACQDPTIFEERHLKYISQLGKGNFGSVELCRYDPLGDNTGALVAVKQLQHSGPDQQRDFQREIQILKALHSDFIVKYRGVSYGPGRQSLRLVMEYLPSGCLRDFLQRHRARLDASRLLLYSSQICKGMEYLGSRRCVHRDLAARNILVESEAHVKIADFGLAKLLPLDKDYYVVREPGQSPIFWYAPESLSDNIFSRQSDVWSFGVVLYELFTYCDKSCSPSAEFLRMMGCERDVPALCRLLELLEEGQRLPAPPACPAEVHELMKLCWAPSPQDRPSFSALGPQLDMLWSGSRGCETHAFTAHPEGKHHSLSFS

Row | Molecule | pIC50 (JAK3) | pIC50 (JAK2) | pIC50 (JAK1)
1 | CN1CCN(c2nc(-c3cnn4ccccc34)nc(O[C@@H]3CCCN(C(=O)CO)C3)c2F)CC1 [Example 67, 2-((3R)-3-{[5-Fluoro-6-(4-methylpiperazin-1-yl)-2-pyrazolo[1,5-a]pyridin-3-ylpyrimidin-4-yl]oxy}piperidin-1-yl)-2-oxoethanol] | 7.64 | 8.30 | 6.86
2 | COc1cc(N[C@@H]2CCCN(C(=O)CO)C2)nc(-c2cnn3ccccc23)n1 [Example 94, 2-{(3R)-3-[(6-Methoxy-2-pyrazolo[1,5-a]pyridin-3-ylpyrimidin-4-yl)amino]piperidin-1-yl}-2-oxoethanol] | 8.15 | 9.00 | 8.15
3 | [Trans-4-({6-[2-(dimethylamino)ethoxy]-5-fluoro-2-pyrazolo[1,5-a]pyridin-3-ylpyrimidin-4-yl}amino)cyclohexyl]acetonitrile [Example 10] | 9.15 | 9.30 | 7.49
4 | Cc1cc(-c2nc(-c3cnn4ccccc34)nc(N(C)[C@@H]3CCCN(C(=O)CC#N)C3)c2F)ccn1 [Example 21, 3-{(3R)-3-[[5-fluoro-6-(2-methylpyridin-4-yl)-2-pyrazolo[1,5-a]pyridin-3-ylpyrimidin-4-yl](methyl)amino]piperidin-1-yl}-3-oxopropanenitrile] | 7.96 | 9.00 | 8.22

More lines, now with the values ahead:

Row | pIC50 (JAK3) | pIC50 (JAK2) | pIC50 (JAK1) | Molecule
5 | 8.52 | 9.10 | 7.96 | COCCOc1nc(-c2cnn3ccccc23)nc(N[C@@H]2CCCN(C(=O)CO)C2)c1F [Example 39, 2-((3R)-3-{[5-Fluoro-6-(2-methoxyethoxy)-2-pyrazolo[1,5-a]pyridin-3-ylpyrimidin-4-yl]amino}piperidin-1-yl)-2-oxoethanol]
6 | 8.40 | 9.00 | 6.66 | CN(C)C1CCN(c2nc(-c3cnn4ccccc34)nc(N[C@H]3CC[C@H](CC#N)CC3)c2F)CC1 [Example 4, [Trans-4-({6-[4-(dimethylamino)piperidin-1-yl]-5-fluoro-2-pyrazolo[1,5-a]pyridin-3-ylpyrimidin-4-yl}amino)cyclohexyl]acetonitrile]
7 | 8.52 | 9.15 | 7.82 | N#CC[C@H]1CC[C@H](Nc2nc(-c3cnn4ccccc34)nc(OC[C@@H](O)CO)c2F)CC1 [Example 6, {Trans-4-[(6-{[(2S)-2,3-dihydroxypropyl]oxy}-5-fluoro-2-pyrazolo[1,5-a]pyridin-3-ylpyrimidin-4-yl)amino]cyclohexyl}acetonitrile]
8 | 8.70 | 9.40 | 9.00 | N#CCC(=O)N1CCC[C@@H](Nc2nc(-c3cnn4ccccc34)nc(N3CCC(C(=O)O)CC3)c2F)C1 [Example 31, 1-(6-{[(3R)-1-(Cyanoacetyl)piperidin-3-yl]amino}-5-fluoro-2-pyrazolo[1,5-a]pyridin-3-ylpyrimidin-4-yl)piperidine-4-carboxylic acid]
